In data set [1] the test system is SW403 tumor (Human colorectal cancer, 35G>T). The experiment in a line: SW403 tumor growth in vivo, combination with Capecitabine. Also on record: species or system mice. The following applies: Capecitabine 200 μg once a week. The procedure:
It was also evaluated whether targeting mutant KRAS in combination with a chemotherapeutic agent can suppress tumor growth in vivo when administered intravenously using ADGN-100-Hy3 nanoparticles. Female nude mice 6-weeks of age were injected with either Human pancreatic carcinoma cell (Panc1-Luc) containing the 35G>A mutation, or Human colorectal cancer cells (SW403) containing 35G>T KRAS mutation (20×10^6 cells in 200 μl PBS). The animals were kept under pathogen-free conditions and fed and watered ad libitum, in cages of 2 to 4 animals (in compliance with recommended area surface/animal), in a dedicated room with a 12 h/12 h light/dark cycle at a constant temperature of 22° C. A period of 2 weeks was allowed for tumor development before the beginning of the experiments […]
Animal were injected ADGN/mRNA complex on day 1 and day 7. […] PANC-1 tumor size was evaluated by bioluminescence imaging. […] Semi-quantitative data of luciferase-positive tumor cell signals were obtained using the manufacturer's software (Living Image; PerkinElmer). Results were expressed as photons/second (photons/s). […] Results were then expressed as values relative to day 0. SW403 tumor size was evaluated every 7 days using caliper. Results were then expressed as values relative to day 0. […]

The test system of the next data set is KRAS 35G>T mutant G12V. The experiment in a line: Indel frequencies at the endogenous target sequences (T7E1 / deep sequencing) after ADGN/Cas9 mRNA/gRNA transfection. Type of data set: cell-based, human. The following applies: deep sequencing, 72 hours after transfection, Cas9 mRNA 0.15 μg, gRNA 0.2 μg, ADGN-100.
A further data set concerns wild type KRAS. The data set is described as above. As to conditions: HT29 cells. The format is cell-based, human. Here is the method: Complex formation with mRNA:gRNA: ADGN peptide/mRNA/gRNA particles were prepared at a 20:1:1 molar ratio. ADGN/Cas9mRNA/sgRNA complexes were prepared at a 20/1/1 molar ratio with 0.5 μg mRNA: 1.5 μg sgRNA and 5% Glucose or DMEM (example for 96 well plates). […] Premixed Cas9 mRNA/gRNA were prepared in sterile water at room temperature in a glass vial (1-4 ml). ADGN-peptide solution was added dropwise (1 drop/sec) under magnetic agitation at 400 rpm to obtain a 1:2 ratio, and incubated for 30 min at room temperature or 37° C. Just before transfection, 150 μl Glucose or DMEM was added and the solution was mixed under magnetic agitation at 400 rpm for 1 minute. Then the solution was incubated for 5 min at 37° C. Then the complexes was ready for cell transfection or IV administration. Prior to IV administration, complexes were diluted in sucrose 5% solution.
(§1) Transfection protocol. The following protocols are reported for 24/48/96 well plate format transfection. Cells should be trypsinized and seeded a day prior transfection Cells were cultured in Dulbecco's Modified Eagle's Medium (DMEM), supplemented with 2 mM glutamine, 1% antibiotics (streptomycin 10,000 μg/mL, penicillin, 10,000 IU/mL) and 10% (w/v) foetal calf serum (FCS), at 37° C. in a humidified atmosphere containing 5% CO2. 96 well plates seeded with 50,000 cells, the day prior transfection, grown to 60-80% confluence and set up to be at around 70% confluence at the day of transfection. Before transfection, cells are washed twice with DMEM (without FBS and pen/strep) (100 μl/well). Cells were then overlaid with 25 μl of complex solution, mixed gently and incubated for 10 min at 37° C.+5% CO2. 50 μl of fresh DMEM (without FBS and Antibiotics) was added and cells were incubated for 2 h at 37° C.+5% CO2 (time of exposure can be adjusted based on sensitivity of the cells). 250 μL of DMEM (containing 10% FCS and 1% antibiotics) were then added without removing the overlay of ADGN peptide/mRNA complexes. Cells were returned to the incubator (37° C., 5% CO2) and analyzed 48 hours to 72 hours post transfection.
(§2) Nine different gRNAs targeting KRAS 35G>T mutant G12V (gRNA35T1, gRNA35T2, gRNA35T3, gRNA35T4, gRNA35T5, gRNA35T6, gRNA35T7, gRNA35T8 and gRNA35T9 (see FIG. 18)) were evaluated on SW403 and SW480 cancer cells harboring G12V KRAS mutation. Cas9 mRNA (0.15 μg) and gRNA (0.2 μg) were associated with ADGN-peptides as reported in experimental procedure. SW403, SW480 and HT-29 cells were cultured in 48 well plate format and treated with free mRNACas9-gRNA, or ADGN-100/mRNACas9:gRNA complex. Indel frequencies at the endogenous target sequences was evaluated 72 hours after transfection by either T7E1 method and by deep sequencing. Cell proliferation was analyzed over a period of 5 days using CellTiter Glow kits on GlowMax (Promega).
Nine different gRNAs targeting KRAS 35G>A mutant G12D (gRNA35A1, gRNA35A2, gRNA35A3, gRNA35A4, gRNA35A5, gRNA35A6; gRNA35A7, gRNA35A8, gRNA35A9) were evaluated on LS513, Panc1, PK-45H, and PK1 cancer cells harboring G12D KRAS mutation. Cas9 mRNA (0.1 μg) and gRNA (0.2 μg) were associated with ADGN-peptide at molar ratio 20/1 (peptide/nucleic acid). LS513, Panc1, PK-45H, PK1, HS-68 and HT-29 cells were cultured in 48 well plate format and treated with free mRNACas9-gRNA, or ADGN/mRNACas9:gRNA complex. Indel frequencies at the endogenous target sequences was evaluated 72 hours after transfection by either T7E1 method or deep sequencing. Cell proliferation was analyzed over a period of 5 days using CellTiter Glow kits on GlowMax (Promega).

For a further data set, the system named is HT-29 cells. The experiment in a line: Cell proliferation over 5 days (CellTiter Glow). The format is cell-based, human. As to conditions: KRAS WT cells. The procedure:
as §1, §2
On the technique in general: In ATP-based viability assays light output follows the ATP content of the culture.

The source of these data is patent US20230167437A1, “COMPOSITIONS FOR TREATING CANCER WITH KRAS MUTATIONS AND USES THEREOF” (Aadigen, LLC, priority 2020, published 2023).

Regarding `CCCCCOC(=O)Nc1nc(=O)n([C@@H]2O[C@H](C)[C@@H](O)[C@H]2O)cc1F` [Capecitabine], the “reduction of SW403 tumor growth” value in data set [1] was 38%.

Turning to “AGC TGT TGG CGT AGG CAA (guide AGCTGTTGGCGTAGGCAA; chemistry not given here) [gRNA35T4, sgRNA target KRAS G12V mutation (c.35G>T); PAM GAG]”, the indel frequencies was found to be 22% in the data set on KRAS 35G>T mutant G12V (SW403 cells (heterozygous 35G>T)) and 41% in the data set on KRAS 35G>T mutant G12V (SW480 cells (homozygous 35G>T)). Besides, in the data set on wild type KRAS, the “disruption of WT KRAS” value is reported as “also induced disruption of WT KRAS in HT29 cells”. For the same molecule, the HT-29 proliferation result with HT-29 cells was “altered also HT-29 proliferation”.
